Data reported in patent publication US20060258750A1, “Use of bicyclo[2.2.1]heptane derivatives for the preparation of neuroprotective pharmaceutical compositions” (priority 2003, published 2006).
“Also recorded” adds a separate entry of the source. Marks after values point to notes of the source that are not given here.

Assays:
[1] = tested on: hippocampal CA1 pyramidal cell death; experiment: Global cerebral ischemia by 3 min bilateral carotid artery occlusion (BCO): hippocampal CA1 neuronal damage score; format: in vivo, Mongolian gerbils
Description: (§1) In our experiments male Mongolian gerbils weighing 50-80 g were used. Deramciclane was administered at 3×30 mg/kg intraperitoneally 60 min before, 30 and 90 min after surgery. Deramciclane was suspended in 0.4% methyl-cellulose solution. In ether narcosis, the right and left common carotid arteries were exposed through an anterior midline cervical incision and isolated from the vagus nerves and the surrounding tissues. Full arrest of carotid blood flow was achieved by tightening an aneurysm clip for 3 min. During surgery the body temperature of the animals was kept at the individual preoperative level (37.5±0.5° C.) with the help of a heating pad and a heating lamp.
After behavioural testing the animals were anesthetized with 60 mg/kg i.p. pentobarbital (10 ml/kg) and perfused through the heart first with saline then with a fixative solution containing 0.1% glutaraldehyde, 4% paraformaldehyde, and 0.2% picric acid in 0.1 M phosphate buffer pH 7.4 for 30 min. The brain was removed from the skull and post-fixed for at least 1 week at 4° C. in the same fixative solution.
Alternate coronal sections of 60 μm thickness were cut from different levels of the dorsal hippocampus by a microtone. The sections were repeatedly washed in 0.1 M phosphate buffer then stained by silver impregnation.
The sections were examined under light microscopy and the overall neuronal damage in the hippocampal CA1 subfield in both hippocampi was scored on a 6-point scale: (0) undamaged, (1)<10%, (2) 10-30%, (3) 30-50%, (4) 50-70%, (5) 70-90%, and (6) 90-100% cell loss. Group differences between drug-treated and vehicle-treated groups were statistically analysed by Mann-Whitney U-test.

Mongolian gerbils = experiment: Global cerebral ischemia (BCO): locomotor activity in symmetrical Y-maze four days after surgery; format: in vivo
Description: as §1
The Mongolian gerbils were placed in the centre of the maze then the number of entries into the three arms was recorded for 5 min. By definition, the animal performed an arm entry when it entered the arm and proceeded at least the distance of its body length. The gerbil was considered to exit the arm when it left it fully. Differences between groups were statistically evaluated by Kruskal-Wallis ANOVA. In case of p<0.05 significance Mann-Whitney U-test was used for paired comparisons.

[2] = 1 and 10 mg/kg after oral administration; cited from earlier work
[3] = single 0.7 mg/kg oral treatment; cited from earlier work
[4] = single oral dose of 3 mg/kg; cited from earlier work
[5] = 10 and 30 mg/kg after oral treatment; cited from earlier work
[6] = cited from earlier work
[7] = 1 and 10 mg/kg ip.; cited from earlier work
central 5-HT2C receptors = central 5-HT2C receptors (Homo sapiens, UniProt P28335); details: cited from earlier work
central 5-HT2A receptors = central 5-HT2A receptors (Homo sapiens, UniProt P28223); details: cited from earlier work
[8] = tested on: brain damage after transient global cerebral ischaemia; details: global cerebral ischaemia in gerbils; cited from earlier work
[9] = 3 × 30 mg/kg i.p., compared to the BCO group
[10] = in the applied dose (3 × 30 mg/kg i.p.)

central 5-HT2C receptors, sequence (P28335 33-458): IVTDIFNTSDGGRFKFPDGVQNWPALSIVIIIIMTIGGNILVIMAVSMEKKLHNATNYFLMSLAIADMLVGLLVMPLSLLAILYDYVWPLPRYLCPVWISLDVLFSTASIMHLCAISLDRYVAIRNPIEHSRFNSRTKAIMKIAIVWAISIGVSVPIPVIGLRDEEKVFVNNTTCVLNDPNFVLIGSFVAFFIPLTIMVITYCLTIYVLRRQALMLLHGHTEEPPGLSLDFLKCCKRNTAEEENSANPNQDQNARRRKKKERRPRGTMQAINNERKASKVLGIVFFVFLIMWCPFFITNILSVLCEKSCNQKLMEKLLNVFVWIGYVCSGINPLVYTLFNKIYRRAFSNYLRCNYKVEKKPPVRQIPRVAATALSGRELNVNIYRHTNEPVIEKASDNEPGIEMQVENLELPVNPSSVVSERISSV
central 5-HT2A receptors, sequence (P28223 whole entry): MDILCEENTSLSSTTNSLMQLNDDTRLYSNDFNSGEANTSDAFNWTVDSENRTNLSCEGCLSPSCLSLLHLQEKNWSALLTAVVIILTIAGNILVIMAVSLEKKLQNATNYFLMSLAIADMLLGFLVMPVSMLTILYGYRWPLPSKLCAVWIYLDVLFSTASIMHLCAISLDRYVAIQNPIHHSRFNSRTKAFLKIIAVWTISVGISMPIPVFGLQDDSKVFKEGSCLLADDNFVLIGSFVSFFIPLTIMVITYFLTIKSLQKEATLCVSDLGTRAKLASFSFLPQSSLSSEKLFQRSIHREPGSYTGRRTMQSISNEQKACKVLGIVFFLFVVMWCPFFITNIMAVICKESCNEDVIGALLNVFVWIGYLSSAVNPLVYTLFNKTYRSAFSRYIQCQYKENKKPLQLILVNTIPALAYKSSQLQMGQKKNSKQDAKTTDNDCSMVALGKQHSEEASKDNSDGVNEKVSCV

| SMILES | CA1 cell death (score) ([1]; 3 × 30 mg/kg i.p. (60 min before, 30 and 90 min after surgery), 6-point scale 0-6, BCO control 4.90) | Effect % (CA1 cell death) [1, 9] | proportion of cell death in the hippocampal CA1 region (in words) [1, 10] | Number of arm entries (Mongolian gerbils; 3 × 30 mg/kg i.p., Y-maze, 5 min, four days after surgery, sham 40.25, BCO 65.44) | Effect % (number of arm entries) (Mongolian gerbils; [9]) | locomotor activity of animals (in words) (Mongolian gerbils; [10]) | activity in Vogel punished drinking test [2] | time spent with social interactions [3] | activity in light-dark test [4] | activity in marble burying test [5] | anxiety caused by CCK in elevated plus maze test ([6]; CCK-induced anxiety) | activity in elevated plus maze test ([6]; in vivo) | antidepressant activity in learned helplessness test [7] | binding to central 5-HT2C receptors (in words) (central 5-HT2C receptors) | binding to central 5-HT2A receptors (in words) (central 5-HT2A receptors) | neuroprotective activity [8] |
| --- | --- | --- | --- | --- | --- | --- | --- | --- | --- | --- | --- | --- | --- | --- | --- | --- |
| CN(C)CCO[C@]1(c2ccccc2)C[C@H]2CC[C@]1(C)C2(C)C [deramciclane, (1R,2S,4R)-(−)-2-(2-dimethylaminoethoxy)-2-phenyl-1,7,7-trimethyl-bicyclo[2.2.1]heptane] | 0.89** score | −82% | significantly reduced | 38.78** | −100% | decreased the locomotor activity of animals into the normal range | active | increased | active | active | antagonized | ineffective | produced antidepressant activity | binds primarily | binds primarily |  |
| Cc1nc2sccn2c(=O)c1CCN1CCC(=C(c2ccc(F)cc2)c2ccc(F)cc2)CC1 [ritanserin] |  |  |  |  |  |  |  |  |  |  |  |  |  |  |  | did not show neuroprotective activity; also recorded: did not produce neuroprotective effect |
